Source: patent EP2902382A1, “Primary hydroxylamines and uses thereof” (Fundació Institut de Recerca Biomèdica IRB (Barcelona), priority 2014, dated 2015)
pIC50: −log10 of the molar value. In brackets after ≈: the same amount, converted by molar mass. Counter-ions that a name gives are not always drawn. Like-named read-outs stand apart in the source and are kept apart here.

Legend:
[1] = system: murine macrophage J774 cell line; assay: Cytotoxicity, MTT colorimetric cell viability assay; format: cell-based; conditions: Mus musculus, J774 macrophages, 24 and 48 h of exposure (time not given), read-out: Cytoxicity (IC50)
Bacillus anthracis = assay: microbe, parasite or virus in culture; format: cell-based, Bacillus anthracis Sterne 7700 pXO1-/pXO2-; conditions: 9 h, read-out: MIC (minimum inhibitory concentration)
Staphylococcus aureus = assay: Minimum inhibitory concentration (MIC), microtiter broth dilution method; format: cell-based, Staphylococcus aureus ATCC 12600 (CECT 86); conditions: read-out: MIC (minimum inhibitory concentration)
Pseudomonas aeruginosa = assay: as above; format: cell-based, Pseudomonas aeruginosa ATCC 15692 (CECT 4122); conditions: read-out: MIC (minimum inhibitory concentration)
S. aureus = format: cell-based
P. aeruginosa = assay: Capacity to inhibit the formation of bacterial biofilms; format: cell-based; conditions: 37°C for 48 h without agitation, viable count (cfu/ml), Fig. 1
Enterococcus faecalis = assay: Minimum inhibitory concentration (MIC), microtiter broth dilution method; format: cell-based, Enterococcus faecalis ATCC 19433 (CECT 481); conditions: TSB broth, 37°C for 9 h, mean of triplicates
Staphylococcus epidermis = assay: as above; format: cell-based, Staphylococcus epidermidis ATCC 1798 (CECT 231); conditions: TSB broth, 37°C for 9 h, mean of triplicates
[2] = TSB broth, 37°C for 9 h, mean of triplicates

ONCc1ccccc1 [Comp 7, N-Benzyl-hydroxylamine hydrochloride, reference compound]
pIC50 [1]: < 2.40 | MIC (Bacillus anthracis): > 4000 µM | MIC (Staphylococcus aureus; 9 h): > 4000 µM | MIC (Pseudomonas aeruginosa; 9 h): > 4000 µM

COc1cccc(OC)c1CNO [Comp 8, N-(2,6-Dimethoxybenzyl)-hydroxylamine, reference compound]
MIC (Bacillus anthracis): > 4000 µM | MIC (Staphylococcus aureus; [2]): > 4000 µM | MIC (Pseudomonas aeruginosa; [2]): > 4000 µM

ONCCc1ccccc1 [Example 1, N-phenethyl-hydroxylamine]
pIC50 [1]: 2.72 | MIC (Bacillus anthracis): 250 to 500 µM (≈ 34.3 to 68.6 µg/mL) | biofilm formation (S. aureus): inhibit | biofilm formation (P. aeruginosa): inhibit | MIC (Enterococcus faecalis): 1000 to 2000 µM (≈ 137 to 274 µg/mL) | MIC (Staphylococcus aureus; [2]): 250 to 500 µM (≈ 34.3 to 68.6 µg/mL) | MIC (Pseudomonas aeruginosa; [2]): 500 to 1000 µM (≈ 68.6 to 137 µg/mL)

ONCC1CCCCC1 [Example 2, N-cyclohexylmethyl-hydroxylamine]
pIC50 [1]: 2.88 | MIC (Bacillus anthracis): 250 to 500 µM (≈ 32.3 to 64.6 µg/mL) | biofilm formation (S. aureus): inhibit | biofilm formation (P. aeruginosa): inhibit | MIC (Staphylococcus epidermis): 250 to 500 µM (≈ 32.3 to 64.6 µg/mL) | MIC (Enterococcus faecalis): 500 to 1000 µM (≈ 64.6 to 129 µg/mL) | MIC (Staphylococcus aureus; [2]): 250 to 500 µM (≈ 32.3 to 64.6 µg/mL) | MIC (Pseudomonas aeruginosa; [2]): 125 to 250 µM (≈ 16.2 to 32.3 µg/mL)

ONCc1ccc(F)cc1 [Example 3, N-(4-fluorobenzyl)-hydroxylamine]
pIC50 [1]: 2.89 | MIC (Bacillus anthracis): 125 to 625 µM (≈ 17.6 to 88.2 µg/mL) | biofilm formation (S. aureus): inhibit | biofilm formation (P. aeruginosa): inhibit | MIC (Staphylococcus epidermis): 125 to 250 µM (≈ 17.6 to 35.3 µg/mL) | MIC (Enterococcus faecalis): 500 to 1000 µM (≈ 70.6 to 141 µg/mL) | MIC (Staphylococcus aureus; [2]): 500 to 1000 µM (≈ 70.6 to 141 µg/mL) | MIC (Pseudomonas aeruginosa; [2]): 1000 to 2000 µM (≈ 141 to 282 µg/mL)

COc1ccc(CNO)c(OC)c1 [Example 4, N-(2,4-dimethoxybenzyl)-hydroxylamine]
pIC50 [1]: 2.64 | MIC (Bacillus anthracis): 125 to 250 µM (≈ 22.9 to 45.8 µg/mL) | biofilm formation (S. aureus): inhibit | biofilm formation (P. aeruginosa): inhibit | MIC (Staphylococcus epidermis): 125 to 250 µM (≈ 22.9 to 45.8 µg/mL) | MIC (Enterococcus faecalis): 500 to 1000 µM (≈ 91.6 to 183 µg/mL) | MIC (Staphylococcus aureus; [2]): 500 to 1000 µM (≈ 91.6 to 183 µg/mL) | MIC (Pseudomonas aeruginosa; [2]): 1000 to 2000 µM (≈ 183 to 366 µg/mL)

COc1ccc(CNO)c(C)c1 [Example 5, N-(4-methoxy-2-methylbenzyl)-hydroxylamine]
pIC50 [1]: 2.66 | MIC (Bacillus anthracis): 125 to 625 µM (≈ 20.9 to 105 µg/mL) | MIC (Staphylococcus epidermis): 250 to 500 µM (≈ 41.8 to 83.6 µg/mL) | MIC (Enterococcus faecalis): 250 to 500 µM (≈ 41.8 to 83.6 µg/mL) | MIC (Staphylococcus aureus; [2]): > 4000 µM | MIC (Pseudomonas aeruginosa; [2]): 1000 to 2000 µM (≈ 167 to 334 µg/mL)

ONCc1cc(C(F)(F)F)cc(C(F)(F)F)c1 [Example 6, N-(3,5-bis-trifluoromethylbenzyl)-hydroxylamine]
pIC50 [1]: 2.68 | MIC (Bacillus anthracis): 125 to 625 µM (≈ 32.4 to 162 µg/mL) | MIC (Staphylococcus epidermis): 125 to 250 µM (≈ 32.4 to 64.8 µg/mL) | MIC (Enterococcus faecalis): 500 to 1000 µM (≈ 130 to 259 µg/mL) | MIC (Staphylococcus aureus; [2]): 250 to 500 µM (≈ 64.8 to 130 µg/mL) | MIC (Pseudomonas aeruginosa; [2]): 1000 to 2000 µM (≈ 259 to 518 µg/mL)
